The values below come from patent publication US8273705B2, “Conversion of apoptotic proteins” (The Burnham Institute, priority 2002, dated 2012).

In test [1] the test system is TR3 expression. Particulars: human prostate cancer cells; cited from earlier work.
The subject of test [2] is lung and breast cancer cells. The conditions noted are these: cited from earlier work.
Test [3] relates to TR3 expression. Particulars: lung cancer cells; cited from earlier work.
Another test has as its system prostate cancer cells. The conditions noted are these: cited from earlier work.
For test [4], the system named is estrogen-dependent and -independent breast cancer cells. Particulars: estrogen-dependent and -independent cell lines; cited from earlier work.
Another test has as its system MDA-MB-231 cells. The test can be described thus: GFP-TR3 subcellular localization by confocal microscopy in MDA-MB-231 cells. The class given is cell-based. Particulars: 10^−6 M, 1 hour. The method, then: Subcellular localization assays—Cells were seeded onto cover-slips in 6-well plates overnight, then transiently transfected with GFP-fusion expression plasmids. After 16 hours, cells were washed with PBS and fixed in 4% paraformaldehyde. For mitochondrial staining, cells were then incubated with anti-Hsp60 goat IgG (Santa Cruz, USA), followed by anti-goat IgG conjugated with Cy3 (Sigma). For cyt c staining, cells were incubated with monoclonal anti-cyt c IgG (PharMingen), followed by anti-mouse IgG conjugated with Cy5 (Amersham). Fluorescent images were collected and analyzed using a MRC-1024 MP laser-scanning confocal microscope (Bio-Rad). Subcellular fractionation assays were performed as described (Li, et al. 2000 Science 289:1159-1164). Briefly, cells (1×10^7 cells) suspended in 0.5 ml hypotonic buffer (5 mM Tris-HCl, pH 7.4, 5 mM KCl, 1.5 mM MgCl2, 0.1 mM EGTA, pH 8.0, and 1 mM DTT) were homogenized and cell extracts were centrifuged at 500×g for 5 min. […]
To study whether the TR3 nuclear-to-mitochondrial targeting pathway also occurs in breast cancer cells, a GFP-TR3 fusion construct was transfected into MDA-MB-231 cells. […] Next, GFP-TR3/ΔDBD was transiently transfected into ZR-75-1 or MDA-MB-231 cells, stained for mitochondria (Hsp60) and cytochrome c (Cyt c), and analyzed by confocal microscopy.

Test [5] deals with TR3 expression. The test can be described thus: TR3 expression by Northern blotting in MDA-MB-231 cells. The class given is cell-based. Particulars: 3 h, MM11453 and MM11384 10^−6 M, TPA 100 ng/ml, EGF 200 ng/ml. The method, then: TR3 is also expressed in both estrogen-dependent ZR-75-1 and in estrogen-independent MDA-MB-231 breast cancer cells (Wu et al. 1997 Mol Cell Bio 17:6598-6608). […] Total RNAs were prepared from MDA-MB-231 cells treated with MM1153 (10^−6 M), MM11384 (10^−6M), TPA (100 ng/ml) or EGF (200 ng/ml) for 3 h. and analyzed by Northern blotting.

In test [6] the test system is LNCaP prostate cancer cells. The test can be described thus: Colocalization of endogenous TR3 and transfected Bcl-2 in LNCaP cells. It counts as cell-based. Particulars: TPA 100 ng/ml, 3 h. On the procedure:
D. co-localization in cells—First the interaction of endogenous TR3 and transfected Bcl-2 colocalization was identified in cells. The phorbol ester 12-0-tetradecanoyl phorbol-13-acetate (TPA) induces the expression of endogenous TR3 and its mitochondrial localization in LNCaP prostate cancer cells. LNCaP cells were transfected with Bcl-2 expression vector, treated with or without TPA (100 ng/ml) for 3 h, then immunostained with anti-Bcl-2 antibody (Santa Cruz) followed by Cy5-conjugated secondary antibody (Amersham Biosciences), or with mouse monoclonal anti-TR3 antibody followed by Cy3-conjugated secondary antibody (Sigma). Endogenous TR3 and transfected Bcl-2 were visualized using confocal microscopy and images were overlaid. […] TR3 was not detected prior to TPA treatment. […] In TPA-stimulated cells, the distribution patterns of endogenous TR3 and transfected Bcl-2 overlapped extensively in the cytoplasm, colocalizing with Hsp60, a mitochondria-specific protein.

The next test relates to TR3/Bcl-2 interaction. The experiment in a line: Co-IP of endogenous TR3 and Bcl-2 in LNCaP cells. It counts as cell-based. Particulars: TPA 3 hours. On the procedure: A. co-immunoprecipitation assays—to identify the interaction between TR3 and Bcl-2, a monoclonal antibody was generated against the ligand-binding domain (GBD) of TR3 for co-immunoprecipitation (Co-IP) assays. LNCaP cells were treated with TPA to induce endogenous TR3 expression for 3 hours. Cell extracts were prepared from TPA-treated and non-treated cells and incubated with mouse monoclonal anti-TR3 antibody. Immunoblotting of immunoprecipitates employed anti-Bcl-2 antibody or rabbit polyclonal anti-TR3 anti-body (Active Motif).

The target in another test is T1, Bcl-2 (Homo sapiens, UniProt P10415).
T1 construct: expressed in transfected cells; host or cells: HEK293T
T1 sequence (P10415 whole entry): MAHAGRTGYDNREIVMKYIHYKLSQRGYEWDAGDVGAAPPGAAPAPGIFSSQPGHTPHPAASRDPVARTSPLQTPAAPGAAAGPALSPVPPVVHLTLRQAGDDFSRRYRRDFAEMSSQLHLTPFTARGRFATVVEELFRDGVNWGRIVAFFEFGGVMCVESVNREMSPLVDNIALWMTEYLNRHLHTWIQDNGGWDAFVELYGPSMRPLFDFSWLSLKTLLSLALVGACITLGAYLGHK
The test can be described thus: GST pull-down assay. The class given is binding. On the procedure:
(§1) TR3/Bcl-2 interaction assays—Reporter gene assays using NurRE-tk-CAT in CV-1 cells, and GST pull-down assay were described previously (Li, et al. 2000 Science 289, 1159-1164). For the mammalian two-hybrid assays, CV-1 cells were co-transfected with pcDNA-Gal4TAD-TR3 or pcDNA-Gal4TAD-TR3/ΔDBD and pcDNA-Gal4DBD-Bcl-2/ΔTM along with a luciferase reporter gene driven by four copies of the Gal4-binding site. The cells were harvested and reporter gene activity was measured. For Co-IP assays, HEK293T cells were transiently transfected with various expression plasmids using a modified calcium phosphate precipitation method (Wu et al, 1997) in the presence of caspase inhibitors (zVAD-fmk) to prevent degradation of TR3 protein due to apoptosis. Cells were suspended in lysis buffer (50 mM Tris-HCl, PH7.4; 150 mM NaCl; 20 mM EDTA; 1% NP-40; 1 mM PMSF; 50 μg/ml Leupeptin; […]; 0.1 mM Na3VO4; and 1 mM DTT). Cells extracts were cleared by incubation with the Protein A/G plus Agarose beads (Santa Cruz) and then incubated with appropriate antibody and 30 μl of Protein A or G plus Agarose beads overnight at 4° C. […] Immunoreactive products were detected by chemiluminescence with an enhanced chemiluminescence system (ECL) (Amersham).
C. in vitro protein binding assays. […] Bound proteins were analyzed by SDS-PAGE autoradiography. ^35S-labeled Bcl-2 was pulled down by GST-TR3 but not by GST. […]

For another test, the target named is T2, Bcl-2/ΔTM (Homo sapiens, UniProt P10415).
T2 construct: expressed in transfected cells; host or cells: CV-1
T2 sequence (P10415 1-204 limits assumed, stated change not applied): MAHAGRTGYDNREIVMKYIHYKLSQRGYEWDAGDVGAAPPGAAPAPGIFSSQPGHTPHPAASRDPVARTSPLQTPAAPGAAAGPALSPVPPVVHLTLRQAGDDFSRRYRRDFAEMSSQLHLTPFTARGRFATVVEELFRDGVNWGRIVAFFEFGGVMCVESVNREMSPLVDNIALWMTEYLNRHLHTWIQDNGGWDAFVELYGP
The test can be described thus: Mammalian two-hybrid assay in CV-1 cells. The class given is cell-based. Particulars: Gal-TAD fusion co-expressed with Gal4-DBD-Bcl-2/ΔTM, 48 h. The method, then:
as §1, with “DTT).” for “DTT). Cells extracts were cleared by incubation with the Protein A/G plus Agarose beads (Santa Cruz) and then incubated with appropriate antibody and 30 μl of Protein A or G plus Agarose beads overnight at 4° C.”
E. Two-hybrid assay—a two-hybrid assay was performed to assess the interaction of TR3 and Bcl-2. […] Reporter gene activity was determined 48 h later and normalized relative to β-gal activity.

Where two headings read alike, the source gives them in different places.

In the case of `CNc1ccc2oc(C[C@H]3O[C@@]4(CC[C@H]3C)O[C@H]([C@H](C)C(=O)c3ccc[nH]3)[C@H](C)C[C@H]4C)nc2c1C(=O)O` [A23187], the TR3 expression entry with TR3 expression [1] is “induced TR3 expression”.
As for `O=C(O)c1ccc2cc(-c3ccc(O)c(C45CC6CC(CC(C6)C4)C5)c3)ccc2c1` [AHPN, 6-[3-(1-adamantyl)-4-hydroxyphenyl]-2-naphthalene carboxylic acid], the “apoptosis of lung and breast cancer cells” value in test [2] is “effectively induce apoptosis”. In the test with TR3 expression [3], the TR3 expression result was “significantly induced”. Also, the “apoptosis of prostate cancer cells” value with prostate cancer cells is listed as “potently induces apoptosis”. Besides, the “apoptosis of breast cancer cells” value in test [4] was “effectively induces apoptosis”.
In the case of `Cc1cc2c(cc1/C=C(\Br)C(=O)c1ccc(C(=O)O)cc1)C(C)(C)CCC2(C)C` [MM11384, (Z)-4-[2-bromo-3-(5,6,7,8-tetrahydro-3,5,5,8,8-pentamethyl-2-naphthalenyl)propenoyl]benzoic acid], the TR3 expression entry in the test with TR3 expression [1] was “induced TR3 expression”; in the test with TR3 expression [5] it was “induced”. Besides, in the test on MDA-MB-231 cells, the GFP-TR3 subcellular localization result is recorded as “translocated to mitochondria”.
As to `O=C(O)c1cc2ccc(-c3ccc(O)c(C45CC6CC(CC(C6)C4)C5)c3)cc2cc1Cl` [MM11453, 6-[3-(1-adamantyl)-4-hydroxyphenyl]-3-chloro-2-naphthalenecarboxylic acid], the values for the TR3 expression result with TR3 expression [1] and with TR3 expression [5] were “induced TR3 expression” and “significantly induced”, respectively. Moreover, the GFP-TR3 subcellular localization entry with MDA-MB-231 cells was “translocated to mitochondria”. Further, in test [4], the “apoptosis of breast cancer cells” value is listed as “effectively induces apoptosis”.
On to `CCCCCCCCCCCCCC(=O)O[C@@H]1[C@@H](C)[C@@]2(O)[C@@H](C=C(CO)C[C@]3(O)C(=O)C(C)=C[C@@H]23)[C@@H]2C(C)(C)[C@]12OC(C)=O` [TPA, 12-O-tetradecanoyl phorbol-13-acetate], for which, in test [6], the TR3 immunostaining entry is recorded as “strong TR3 immunostaining”; the “cells demonstrating colocalization of endogenous TR3 and transfected Bcl-2” value was “Approximately 80%”. Further, in the test on TR3 expression [1], the TR3 expression entry is listed as “induced TR3 expression”. Further, the “co-immunoprecipitation of Bcl-2 by anti-TR3 antibody” value in the test with TR3/Bcl-2 interaction is on record as “specifically co-immunoprecipitated”. The TR3 expression result in the test with TR3 expression [5] is listed as “induced”.
Turning to `COc1cc([C@@H]2c3cc4c(cc3[C@@H](O[C@@H]3O[C@@H]5CO[C@@H](C)O[C@H]5[C@H](O)[C@H]3O)[C@H]3COC(=O)[C@H]23)OCO4)cc(OC)c1O` [VP-16], in the test with TR3 expression [1], the TR3 expression entry is recorded as “induced TR3 expression”.
On to “EGF: the mitogenic agent epidermal growth factor”, for which the TR3 expression result with TR3 expression [5] is “induced”.
Take “GST-TR3: GST fusion of TR3 immobilized on glutathione-Sepharose”: the “binding of ^35S-labeled Bcl-2” value with Bcl-2 was “pulled down”.
As for “TR3: orphan receptor TR3, nuclear transcription factor”, in the test with Bcl-2/ΔTM, the “Gal4 reporter gene activity” value was “strongly activated”.
